The text below walks through data of ChEMBL document CHEMBL5236627, “Synthesis and biological activity evaluation of novel 3,5,7-trisubstituted pyrazolo[1,5-a]pyrimidines” (2023).

Molecules are shown by their SMILES. The source made the active and inactive calls. The calls are words filed in the database; no cut-off is given here.

For assay [1], the system named is MOLM-13. Kind of assay: Anticancer activity against human MOLM-13 cells. It is filed as functional, cell-based.
Assay [2] concerns MV4-11. Kind of assay: Anticancer activity against human MV4-11 cells expressing FLT3-ITD mutant. It is filed as functional, cell-based.
In assay [3] the target is Cyclin-dependent kinase 9 (Homo sapiens) (UniProt P50750). Kind of assay: Inhibition of CDK9 (unknown origin).
The subject of assay [4] is CCRF-CEM. As to the kind of experiment: Anticancer activity against FLT3-independent human CCRF-CEM cells. It counts as functional, cell-based.
Assay [5] relates to K562. Kind of assay: Anticancer activity against human K562 cells. It is filed as functional, cell-based.
Assay [6] deals with Cyclin-dependent kinase 2 (Homo sapiens) (UniProt P24941). Kind of assay: Inhibition of CDK2 (unknown origin).
Assay [7] relates to THP-1. As to the kind of experiment: Anticancer activity against human THP-1 cells. It counts as functional, cell-based.
For assay [8], the system named is MCF7. As to the kind of experiment: Anticancer activity against human MCF7 cells. It is filed as functional, cell-based.
In assay [9] the test system is MV4-11. Kind of assay: Induction of cell cycle arrest in human MV4-11 cells assessed as accumulation of G1 phase cells at 0.01 uM by PI staining based flow cytometric analysis (reference value: 60.77 % ). It counts as functional.
Assay [10] concerns MV4-11. Kind of assay: Induction of cell cycle arrest in human MV4-11 cells assessed as G2 phase cells at 0.001 uM by PI staining based flow cytometric analysis (reference value: 12.61 % ). It is filed as functional. A general note: Flow cytometry measures light scatter and fluorescence of single cells or particles in a stream.
Assay [11] has as its system MV4-11. Kind of assay: Induction of cell cycle arrest in human MV4-11 cells assessed as accumulation of G1 phase cells at 0.1 uM by PI staining based flow cytometric analysis (reference value: 60.77 % ). It is filed as functional.
Assay [12] deals with MV4-11. As to the kind of experiment: Induction of cell cycle arrest in human MV4-11 cells assessed as S phase cells at 10 uM by PI staining based flow cytometric analysis (reference value: 26.62 % ). It is filed as functional.
Assay [13] concerns the target Receptor-type tyrosine-protein kinase FLT3 (Homo sapiens) (UniProt P36888). As to the kind of experiment: Inhibition of FLT3 autophosphorylation at tyrosine 589/591 residues in human MV4-11 cells at 0.01 uM incubated for 1 hrs by immunoblotting analysis. It counts as cell-based. On the technique in general: In western blotting, separated proteins are transferred to a membrane and probed.

Assay [14] relates to MV4-11. As to the kind of experiment: Induction of cell cycle arrest in human MV4-11 cells assessed as accumulation of G1 phase cells at 10 uM by PI staining based flow cytometric analysis (reference value: 60.77 % ). It is filed as functional.
Assay [15] deals with MV4-11. Kind of assay: Induction of cell cycle arrest in human MV4-11 cells assessed as S phase cells at 1 uM by PI staining based flow cytometric analysis (reference value: 26.62 % ). It counts as functional.
In assay [16] the test system is MV4-11. Kind of assay: Induction of cell cycle arrest in human MV4-11 cells assessed as S phase cells at 0.01 uM by PI staining based flow cytometric analysis (reference value: 26.62 % ). It is filed as functional.
In assay [17] the test system is MV4-11. Kind of assay: Induction of cell cycle arrest in human MV4-11 cells assessed as S phase cells at 0.001 uM by PI staining based flow cytometric analysis (reference value: 26.62 % ). It is filed as functional.
For assay [18], the target named is Mitogen-activated protein kinase; ERK1/ERK2 (Homo sapiens) (UniProt P27361+P28482). As to the kind of experiment: Inhibition of ERK1/2 phosphorylation at Thr202/Tyr204 residues in human MV4-11 cells at 0.1 uM incubated for 1 hrs by immunoblotting analysis. It counts as cell-based.
Assay [19] relates to MV4-11. Kind of assay: Induction of cell cycle arrest in human MV4-11 cells assessed as S phase cells at 0.1 uM by PI staining based flow cytometric analysis (reference value: 26.62 % ). It is filed as functional.
Assay [20] relates to MV4-11. Kind of assay: Induction of cell cycle arrest in human MV4-11 cells assessed as G2 phase cells at 0.01 uM by PI staining based flow cytometric analysis (reference value: 12.61 % ). It counts as functional.
Assay [21] deals with MV4-11. Kind of assay: Induction of cell cycle arrest in human MV4-11 cells assessed as accumulation of G1 phase cells at 0.001 uM by PI staining based flow cytometric analysis (reference value: 60.77 % ). It counts as functional.
In assay [22] the test system is MV4-11. As to the kind of experiment: Induction of cell cycle arrest in human MV4-11 cells assessed as G2 phase cells at 1 uM by PI staining based flow cytometric analysis (reference value: 12.61 % ). It counts as functional.
Assay [23] deals with MV4-11. As to the kind of experiment: Induction of cell cycle arrest in human MV4-11 cells assessed as G2 phase cells at 0.1 uM by PI staining based flow cytometric analysis (reference value: 12.61 % ). It counts as functional.
Assay [24] has as its system MV4-11. As to the kind of experiment: Induction of cell cycle arrest in human MV4-11 cells assessed as G2 phase cells at 10 uM by PI staining based flow cytometric analysis (reference value: 12.61 % ). It is filed as functional.
In assay [25] the test system is MV4-11. Kind of assay: Induction of cell cycle arrest in human MV4-11 cells assessed as accumulation of G1 phase cells at 1 uM by PI staining based flow cytometric analysis (reference value: 60.77 % ). It is filed as functional.
For assay [26], the target named is T1, Signal transducer and activator of transcription 5A (Homo sapiens) (UniProt P42229).
T1 sequence (whole entry): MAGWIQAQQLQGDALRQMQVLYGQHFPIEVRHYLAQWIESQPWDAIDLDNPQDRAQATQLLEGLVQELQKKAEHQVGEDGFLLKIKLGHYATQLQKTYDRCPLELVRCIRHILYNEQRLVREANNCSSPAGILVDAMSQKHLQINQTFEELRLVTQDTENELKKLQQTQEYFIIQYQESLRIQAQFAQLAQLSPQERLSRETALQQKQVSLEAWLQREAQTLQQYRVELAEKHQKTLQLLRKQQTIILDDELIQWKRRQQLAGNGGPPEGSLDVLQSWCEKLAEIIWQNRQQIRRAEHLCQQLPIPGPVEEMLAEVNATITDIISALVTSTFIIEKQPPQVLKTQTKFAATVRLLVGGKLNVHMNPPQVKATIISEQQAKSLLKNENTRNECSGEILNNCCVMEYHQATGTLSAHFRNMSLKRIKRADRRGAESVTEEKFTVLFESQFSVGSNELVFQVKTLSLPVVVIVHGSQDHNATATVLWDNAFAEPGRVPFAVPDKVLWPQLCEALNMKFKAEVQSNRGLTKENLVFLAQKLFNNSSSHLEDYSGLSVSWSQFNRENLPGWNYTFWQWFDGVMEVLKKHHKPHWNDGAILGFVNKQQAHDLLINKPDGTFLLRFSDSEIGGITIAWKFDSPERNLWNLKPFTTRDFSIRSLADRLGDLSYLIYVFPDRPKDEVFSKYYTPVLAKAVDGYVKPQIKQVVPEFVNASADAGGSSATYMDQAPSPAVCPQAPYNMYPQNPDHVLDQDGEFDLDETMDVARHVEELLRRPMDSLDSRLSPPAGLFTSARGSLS
As to the kind of experiment: Inhibition of STAT5 phosphorylation in human MV4-11 cells at 0.01 uM incubated for 1 hrs by immunoblotting analysis. It counts as cell-based.

Cyclin-dependent kinase 9 (Homo sapiens), sequence (P50750 whole entry): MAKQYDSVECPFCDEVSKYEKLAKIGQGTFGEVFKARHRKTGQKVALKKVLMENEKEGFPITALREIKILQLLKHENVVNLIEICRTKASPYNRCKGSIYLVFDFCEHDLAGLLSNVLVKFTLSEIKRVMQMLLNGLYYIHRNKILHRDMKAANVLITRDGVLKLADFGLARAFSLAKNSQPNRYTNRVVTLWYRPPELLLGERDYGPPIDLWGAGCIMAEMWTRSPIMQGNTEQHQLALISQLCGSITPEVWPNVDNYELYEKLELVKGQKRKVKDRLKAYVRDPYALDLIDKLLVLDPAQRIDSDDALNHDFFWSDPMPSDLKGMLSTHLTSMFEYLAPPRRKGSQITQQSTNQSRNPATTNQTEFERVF
Receptor-type tyrosine-protein kinase FLT3 (Homo sapiens), sequence (P36888 whole entry): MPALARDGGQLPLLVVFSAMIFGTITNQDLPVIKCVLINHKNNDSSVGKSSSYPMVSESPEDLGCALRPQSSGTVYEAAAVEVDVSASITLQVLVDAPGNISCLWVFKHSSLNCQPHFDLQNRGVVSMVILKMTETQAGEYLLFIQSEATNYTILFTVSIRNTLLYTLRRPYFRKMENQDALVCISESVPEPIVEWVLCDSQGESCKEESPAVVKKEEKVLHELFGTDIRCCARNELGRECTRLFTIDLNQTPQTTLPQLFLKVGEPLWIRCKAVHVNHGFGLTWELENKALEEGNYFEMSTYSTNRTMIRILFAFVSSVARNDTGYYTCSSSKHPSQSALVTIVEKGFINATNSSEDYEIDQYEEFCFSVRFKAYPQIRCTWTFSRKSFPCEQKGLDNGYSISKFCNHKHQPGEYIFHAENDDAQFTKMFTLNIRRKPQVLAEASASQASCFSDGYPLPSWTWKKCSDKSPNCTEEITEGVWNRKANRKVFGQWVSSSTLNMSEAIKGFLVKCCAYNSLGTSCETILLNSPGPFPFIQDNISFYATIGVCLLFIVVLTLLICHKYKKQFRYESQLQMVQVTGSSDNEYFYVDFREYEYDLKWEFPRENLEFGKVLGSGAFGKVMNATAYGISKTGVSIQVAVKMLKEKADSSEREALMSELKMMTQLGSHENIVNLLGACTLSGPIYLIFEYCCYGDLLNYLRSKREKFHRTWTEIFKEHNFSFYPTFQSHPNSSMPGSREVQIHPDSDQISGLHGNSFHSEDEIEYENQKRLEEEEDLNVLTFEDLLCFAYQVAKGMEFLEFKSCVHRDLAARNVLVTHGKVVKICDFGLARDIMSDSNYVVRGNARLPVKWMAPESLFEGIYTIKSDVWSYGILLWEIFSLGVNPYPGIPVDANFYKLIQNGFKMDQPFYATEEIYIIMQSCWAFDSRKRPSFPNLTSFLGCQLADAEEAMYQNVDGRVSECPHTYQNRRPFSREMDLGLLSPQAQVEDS
Mitogen-activated protein kinase; ERK1/ERK2 (Homo sapiens), sequence (P27361 whole entry, looked up): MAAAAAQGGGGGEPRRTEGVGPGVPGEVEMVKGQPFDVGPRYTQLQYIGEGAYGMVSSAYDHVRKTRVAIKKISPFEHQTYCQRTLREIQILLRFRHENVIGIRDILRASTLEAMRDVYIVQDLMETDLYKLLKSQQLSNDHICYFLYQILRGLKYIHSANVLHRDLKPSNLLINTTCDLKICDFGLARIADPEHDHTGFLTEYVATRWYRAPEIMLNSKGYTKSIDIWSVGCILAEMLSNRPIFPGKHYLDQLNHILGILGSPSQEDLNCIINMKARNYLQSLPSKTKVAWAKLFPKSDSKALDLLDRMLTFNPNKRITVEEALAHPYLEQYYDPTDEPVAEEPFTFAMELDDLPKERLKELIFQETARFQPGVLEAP
Mitogen-activated protein kinase; ERK1/ERK2 (Homo sapiens), sequence (P28482 whole entry, looked up): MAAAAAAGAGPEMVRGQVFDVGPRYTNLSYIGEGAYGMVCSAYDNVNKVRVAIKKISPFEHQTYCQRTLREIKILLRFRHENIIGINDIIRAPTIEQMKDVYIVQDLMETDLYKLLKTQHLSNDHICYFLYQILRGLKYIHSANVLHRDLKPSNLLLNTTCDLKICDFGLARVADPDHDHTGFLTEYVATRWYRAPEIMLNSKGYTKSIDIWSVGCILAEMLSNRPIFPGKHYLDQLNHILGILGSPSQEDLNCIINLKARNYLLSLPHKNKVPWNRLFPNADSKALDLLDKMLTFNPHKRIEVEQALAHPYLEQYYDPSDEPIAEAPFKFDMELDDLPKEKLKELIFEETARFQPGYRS

As to `N[C@H]1CC[C@H](Nc2cc(Nc3ccc(-c4cccs4)nc3)n3ncc(C4CCCC4)c3n2)CC1`, the result in [1], in [2], in assay [4], in assay [5], in assay [7] and in assay [8] was Active. Also, the inhibition result in assay [3] and in [6] was “Active” each time.

In the case of `NCCCCNc1cc(NCc2cccc(CN3CCOCC3)c2)n2ncc(C3CCCC3)c2n1`, the outcome in assay [1] and in assay [2] was Active.

Consider `N[C@H]1CC[C@H](Nc2cc(Nc3ccc(N4CC5(COC5)C4)cc3)n3ncc(C4CCCC4)c3n2)CC1`, for which the result in assay [1] and in assay [2] was Active.

Consider `N[C@H]1CC[C@H](Nc2cc(Nc3ccc(CN4CCOCC4)cc3)n3ncc(C4CCCC4)c3n2)CC1`, for which the Activity in [9] came to 61.96%; in assay [10] it was 14.62%; in assay [11], 86.23%; in [12], 18.38%; in [14] it was 75.69%; in assay [15], 16.48%. For the same compound, the Activity is given as 25.25% in assay [16]; 26.03% in [17]; 8.66% in assay [19]; 12.79% in assay [20]; 59.36% in [21]; 7.13% in assay [22]. The results for the Activity in assay [23], in [24] and in assay [25] were 5.11%, 5.93% and 76.39%, respectively. Further, the result in assay [1], in assay [2], in assay [4], in assay [5], in [7] and in assay [8] was Active. Also, the inhibition entry in [13], in [3], in assay [18], in assay [6] and in [26] was “Active” throughout.

Turning to `CC[C@@H](CO)Nc1cc(Nc2ccc(-c3cccs3)nc2)n2ncc(C3CCCC3)c2n1`, the outcome in assay [1] and in assay [2] was Active.

For `N[C@H]1CC[C@H](Nc2cc(Nc3cccc(CN4CCOCC4)c3)n3ncc(C4CCCC4)c3n2)CC1`, the result in assay [1] and in assay [2] was Active.

With `N[C@H]1CC[C@H](Nc2cc(NCc3ccc(Br)cc3)n3ncc(C4CCCC4)c3n2)CC1`, the result in [1] and in [2] was Active.

On to `NCCCCNc1cc(Nc2ccc(CN3CCOCC3)cc2)n2ncc(C3CCCC3)c2n1`, for which the result in [1] and in [2] was Active.
